Biological target: T1, 5-Lipoxygenase (Homo sapiens, UniProt P09917)
T1 construct: endogenous in cells; host or cells: human heparinized whole blood (blood leukocytes), stimulated with calcium ionophore A23187
T1 sequence (P09917 1-674): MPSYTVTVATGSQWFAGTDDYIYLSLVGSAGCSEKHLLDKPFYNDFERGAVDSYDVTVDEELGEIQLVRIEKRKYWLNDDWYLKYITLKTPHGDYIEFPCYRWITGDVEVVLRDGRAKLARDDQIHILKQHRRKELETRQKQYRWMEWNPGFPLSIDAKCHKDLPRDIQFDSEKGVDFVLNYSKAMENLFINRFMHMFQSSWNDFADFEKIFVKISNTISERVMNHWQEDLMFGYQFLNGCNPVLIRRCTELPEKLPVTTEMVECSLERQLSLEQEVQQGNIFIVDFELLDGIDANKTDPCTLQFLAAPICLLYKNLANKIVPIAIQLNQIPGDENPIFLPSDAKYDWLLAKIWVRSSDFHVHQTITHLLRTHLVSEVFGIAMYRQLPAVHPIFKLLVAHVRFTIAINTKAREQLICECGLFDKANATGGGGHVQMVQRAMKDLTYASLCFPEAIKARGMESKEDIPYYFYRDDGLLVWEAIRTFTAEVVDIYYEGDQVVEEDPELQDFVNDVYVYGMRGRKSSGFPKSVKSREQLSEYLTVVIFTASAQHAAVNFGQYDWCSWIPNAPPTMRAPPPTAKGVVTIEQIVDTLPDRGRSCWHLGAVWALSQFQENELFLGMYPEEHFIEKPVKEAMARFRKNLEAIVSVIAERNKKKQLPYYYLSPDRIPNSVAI
Experiment: Inhibition of calcium ionophore-induced LTB4 biosynthesis in human whole blood
Assay type: cell-based
Details: A23187 8.3 μM; for IC50: human heparinized whole blood, 15 min preincubation at 37° C., 30 min, LTB4 by radioimmunoassay, read-out: IC50, in vitro inhibitory potency against 5-lipoxygenase from stimulated LTB4 formation in human whole blood
Procedure: Inhibition of leukotriene biosynthesis was evaluated in an assay, involving calcium ionophore-induced LTB4 biosynthesis expressed human whole blood. Human heparinized whole blood was preincubated with test compounds or vehicle for 15 min at 37° C. followed by calcium ionophore A23187 challenge (final concentration of 8.3 μM) and the reaction terminated after 30 min by adding two volumes of methanol containing prostaglandin B2 as an internal recovery standard. The methanol extract was analyzed for LTB4 using a commercially available radioimmunoassay.

[1] = human whole blood, read-out: % inhibition of stimulated LTB4 formation in human whole blood

| SMILES | IC50 [µM] | inhibition at 12.5 µM [1] [%] | further results |
| --- | --- | --- | --- |
| COC1(/C=C/C(=O)NCc2ccc3ccccc3c2)CCOCC1 [Example 20, 3-(4-methoxytetrahydropyran-4-yl)-N-((napth-2-yl)methyl)-trans-propionyl amide] | 0.26 | – | – |
| COC1(/C=C/COCc2ccc3c(ccc(=O)n3C)c2)CCOCC1 [Example 6, 4-methoxy-4-[3-((1,2-dihydro-1-methyl-2-oxoquinolin-6-yl)methoxy)-trans-prop-1-enyl]tetrahydropyran] | – | – | inhibition at 0.39 µM [1]: 51% |
| COC1(C#CC(C)OCc2ccc3ccccc3c2)CCOCC1 (centres unmarked) [Example 2, 4-methoxy-4-[3-methyl-3-(((napth-2yl)methoxy))-prop-1-ynyl]tetrahydropyran] | – | 95 | – |
| COC1(/C=C/C(=O)NCc2ccc3c(ccc(=O)n3C)c2)CCOCC1 [Example 21] | – | – | inhibition at 0.39 µM [1]: 50% |
| COC1(/C=C/COCC#Cc2ccccn2)CCOCC1 [Example 22, 4-methoxy-4-[3-((2-(pyrid-2-yl)ethynyl)methoxy)-trans-propen-1-yl]tetrahydropyran] | – | 18 | – |
| COC1(CCCOCc2ccc3ccccc3c2)CCOCC1 [Example 5, 4-methoxy-4-[3-((napth-2yl)methoxy)-prop-1-yl]tetrahydropyran] | 1.5 | – | – |
| COC1(/C=C/CSc2ccc3ccccc3c2)CCOCC1 [Example 19, 4-methoxy-4-[3-(napth-2-ylthioxy)-trans-prop-1-enyl]tetrahydropyran] | – | – | inhibition at 0.1 µM (at 0.10 μM, human whole blood, read-out: % inhibition of stimulated LTB4 formation in human whole blood): 34% |
| COC1(C#CCOCc2ccc3ccccc3c2)CCOCC1 [Example 1, 4-methoxy-4-[3-((napth-2-yl)methoxy)-prop-1-ynyl]tetrahydropyran] | 3.8 | – | – |

Further lines, with some results ahead:

| IC50 [µM] | inhibition at 12.5 µM [1] [%] | SMILES | further results |
| --- | --- | --- | --- |
| – | 11 | COC1(/C=C/COCc2ccc(-c3ccccc3)cc2)CCOCC1 [Example 8, 4-methoxy-4-[3-((4-phenylphen-1-yl)methoxy)-trans-prop-1-enyl]tetrahydropyran] | – |
| 0.7 | – | COC1(/C=C/COCc2ccc3ccccc3c2)CCOCC1 [Example 3] | – |
| – | 99 | COC1(/C=C/C(C)OCc2ccc3ccccc3c2)CCOCC1 (stereo not drawn) [Example 4, 4-methoxy-4-[3-methyl-3-((napth-2yl)methoxy)- trans-prop-1-enyl]tetrahydropyran] | – |
